The values below are quoted from earlier work in patent publication US20170101624A1, “METHODS OF ENHANCING T-CELL LONGEVITY AND USES THEREOF” (Washington University, priority 2015, published 2017).

The series deals with Drp1 (Dnm1). Particulars: as disclosed in Cassidy-Stone et al. Developmental Cell 2008.

`COc1cc(-n2c(=S)[nH]c3ccccc3c2=O)c(Cl)cc1Cl` [compound A]: the “efficacy relative to Mdivi-1 (inhibition of mitochondrial fission)” value was “full efficacy”.
